The values below come from patent US5831001A, “Treatment of herpesvirus infection” (priority 1995, dated 1998).

One data set deals with HSV. Briefly: plaque reduction assay, inhibition of HSV replication. It is filed as cell-based. The settings on record: for Virus titer: pretreated Veto cell monolayers, plaques counted after 2 to 3 days. As to the method:
Selected compounds were first formulated as 10 mM stocks in water for in vitro and call culture procedures. Then stocks are then diluted into buffers used for specific assays, or into cell culture media. For animal studies peptides are diluted into phosphate buffer saline,
The following procedures were then used to determine inhibitory effects of compounds on the replication of HSV. First, confluent monolayers of Veto cells (continuous passage cell line derived from African Green Monkeys) in 24 well cell culture plates were treated with specified concentrations of peptide for 25 hours. This was accomplished by diluting the stock peptide solution in growth medium used to overlay the monolayers, i.e. growth medium containing 10% fetal bovine serum and 10 ug/ml gentamicin in Dulbecco's MEM (DMEM).
Virus was then allowed to adsorb for 1 hour at 37° C. The virus inoculum was removed and the monolayers are overlayed with DMEM containing 2% FBS, 10 ug/ml gentamicin and specified concentration of peptide. Virus was next allowed to replicate for 2 to 3 days until the plaques were judged to be well developed, and then the monolayers were fixed and stained with a solution of 1% crystal violet in 1% formaldehyde, 70% ethanol. Finally, plaques (each representing a single viable virion) were counted and checked microscopically.
A general note: In a plaque reduction assay, fewer plaques than in the control indicate reduced infectivity or spread.

In the case of `CC(=O)N[C@H](CCCNC(=N)N)C(=O)N[C@H](CCCNC(=N)N)C(=O)N[C@H](CCCNC(=N)N)C(=O)N[C@H](CCCNC(=N)N)C(=O)N[C@H](CCCNC(=N)N)C(=O)N[C@H](CCCNC(=N)N)C(=O)N[C@H](CCCNC(=N)N)C(=O)N[C@H](CCCNC(=N)N)C(=O)N[C@H](CCCNC(=N)N)C(N)=O` [compound 4C, acetyl-[D-Arg]9 -NH2], the “inhibition of viral replication” value with HSV (at the concentration tested (5uM)) was at least 95%. The Virus titer is 30,000 pfu/ml in the data set on HSV (peptide concentration 0.5 uM) and 11,000 pfu/ml in the data set with HSV (peptide concentration 5.0 uM). Further, the “inhibition of host cell replication” value in the data set on Veto cells is “no apparent inhibition”.
